Laboratory results published in ChEMBL document CHEMBL1201862, “PubChem BioAssay data set” (2004).
Activity calls are given as the source filed them.

Key:
[1] = cytotoxicity toward NIH3T3 fibroblasts, dose response, counter-screen, cell-based, ATP luminescence, mouse fibroblasts (AID 2010); format: functional;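 further: cells exposed to compound for about 90 hours before reading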
[2] = target: Sphingosine 1-phosphate receptor 1 (Homo sapiens, UniProt P21453); format: functional;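 further: Tango beta-arrestin reporter U2OS cells stimulated with S1P near its EC80; inhibitor potency meaning antagonism of receptor activation by the natural agonist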
[3] = target: T1, Microphthalmia-associated transcription factor (Homo sapiens, UniProt O75030); assay: TRPM1 promoter luciferase signal decrease, dose response, MITF inhibitor project, cell-based, SK-MEL-5, cherry-picked, set 3 (AID 493073); format: functional
T1 sequence (O75030 whole entry): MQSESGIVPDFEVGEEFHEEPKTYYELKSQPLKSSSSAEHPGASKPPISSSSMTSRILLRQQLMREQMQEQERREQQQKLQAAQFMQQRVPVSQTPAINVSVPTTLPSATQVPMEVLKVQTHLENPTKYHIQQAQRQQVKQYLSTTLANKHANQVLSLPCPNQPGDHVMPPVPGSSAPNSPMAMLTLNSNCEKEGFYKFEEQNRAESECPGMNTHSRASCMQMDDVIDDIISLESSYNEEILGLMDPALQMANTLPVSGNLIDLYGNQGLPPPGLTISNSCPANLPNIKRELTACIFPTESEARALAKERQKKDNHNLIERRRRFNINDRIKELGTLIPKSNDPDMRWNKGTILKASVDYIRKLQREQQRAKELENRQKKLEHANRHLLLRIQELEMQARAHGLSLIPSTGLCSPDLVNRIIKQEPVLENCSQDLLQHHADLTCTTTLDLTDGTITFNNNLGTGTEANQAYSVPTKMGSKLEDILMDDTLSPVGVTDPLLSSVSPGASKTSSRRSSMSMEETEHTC

[4] = target: T2, Sphingosine 1-phosphate receptor 4 (Homo sapiens, UniProt O95977); assay: Fluorescence dose response cell-based high throughput screening assay for antagonists of the Sphingosine 1-Phosphate Receptor 4 (S1P4). [Related pubchem assays: 1524 (Confirmation in triplicates.), 1510 (Primary screen.)]; format: functional
T2 sequence (O95977 whole entry): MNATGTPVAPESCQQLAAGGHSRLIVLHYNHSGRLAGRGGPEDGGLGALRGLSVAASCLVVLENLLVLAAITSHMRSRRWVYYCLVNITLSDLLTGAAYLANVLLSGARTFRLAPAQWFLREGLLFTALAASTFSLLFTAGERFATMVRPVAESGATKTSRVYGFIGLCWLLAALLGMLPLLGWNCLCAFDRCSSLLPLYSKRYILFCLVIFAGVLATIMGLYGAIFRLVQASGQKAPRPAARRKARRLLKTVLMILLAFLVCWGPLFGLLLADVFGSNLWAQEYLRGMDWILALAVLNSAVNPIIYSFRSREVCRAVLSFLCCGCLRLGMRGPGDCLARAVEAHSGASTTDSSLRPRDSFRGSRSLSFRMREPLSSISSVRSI

[5] = target: T3, Heat shock factor protein 1 (Mus musculus, UniProt P38532); assay: inhibition of MG132-induced HSE-luciferase signal, confirmation, cell-based, NIH3T3, luminescence, dose retest (AID 2382); format: functional;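 further: NIH3T3 fibroblasts with HSF1-driven luciferase reporter stressed by proteasome inhibitor MG132; luminescence from HSF1-driven luciferase expression after 8 hours of MG132 stress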
T3 sequence (P38532 whole entry): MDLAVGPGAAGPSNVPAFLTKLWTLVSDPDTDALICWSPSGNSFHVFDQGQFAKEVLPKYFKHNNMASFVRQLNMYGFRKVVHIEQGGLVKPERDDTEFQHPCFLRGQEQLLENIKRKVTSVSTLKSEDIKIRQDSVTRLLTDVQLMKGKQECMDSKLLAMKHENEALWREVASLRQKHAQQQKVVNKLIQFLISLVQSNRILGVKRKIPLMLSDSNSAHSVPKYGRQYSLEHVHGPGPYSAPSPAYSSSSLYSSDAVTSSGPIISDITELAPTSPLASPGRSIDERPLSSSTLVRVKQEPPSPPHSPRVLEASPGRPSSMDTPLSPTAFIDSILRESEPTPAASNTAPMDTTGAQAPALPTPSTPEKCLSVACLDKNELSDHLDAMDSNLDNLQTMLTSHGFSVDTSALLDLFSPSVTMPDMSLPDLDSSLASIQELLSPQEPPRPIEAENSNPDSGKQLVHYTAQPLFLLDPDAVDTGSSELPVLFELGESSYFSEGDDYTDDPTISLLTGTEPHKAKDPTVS

[6] = inhibitors of intracellular T. cruzi replication, confirmation, NIH3T3 host cells, beta-gal luminescence (AID 2044); format: functional, cell-based;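 further: intracellular parasites grown in NIH/3T3 mouse fibroblasts as host cells; luminescent beta-galactosidase reporter signal from transgenic T. cruzi replicating inside host cells; inhibitors lower the luminescence signal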
Estrogen receptor beta [7] = target: T4, Estrogen receptor beta (Homo sapiens, UniProt Q92731);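 further: recombinant ER-beta bound to coactivator SRC1 peptide in presence of estradiol agonist; inhibitors block coactivator peptide binding and lower the FRET signal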
Estrogen receptor beta [8] = target: T4, Estrogen receptor beta; assay: ERβ–SRC-3 coactivator interaction inhibitors, confirmation, orthogonal assay, biochemical, ELISA, streptavidin-HRP readout (AID 1060)
[9] = Jurkat T cell cytotoxicity, dose response, cytotoxicity control for P. falciparum gametocyte viability project, luminescence (AID 1117277); format: functional, cell-based;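 further: potency reflects loss of cellular ATP meaning fewer viable cells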
[10] = P. falciparum late gametocyte killing, dose response, luminescence (AID 1117278); format: functional, cell-based;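 further: gametocytes exposed to compound for 24 hours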
[11] = target: Voltage-dependent T-type calcium channel subunit alpha-1H (Homo sapiens, UniProt O95180); format: functional;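 further: channel activity triggered by adding a high calcium stimulation buffer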
[12] = target: Protein-tyrosine kinase 2-beta (Homo sapiens, UniProt Q14289);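 further: potency of inhibitors of PYK2 kinase phosphorylation of poly-GT substrate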
SUMO-activating enzyme [13] = target: T5, SUMO-activating enzyme (Homo sapiens, UniProt Q9UBT2); assay: inhibitors of in vitro SUMOylation cascade, primary screen, biochemical, HTRF, uHTS (AID 2006); format: protein-complex assay
SUMO-activating enzyme [14] = target: T5, SUMO-activating enzyme; assay: SUMOylation inhibitor hit validation, confirmation, SUMOylation inhibitor project, biochemical, AlphaScreen (AID 2018); format: functional
[15] = target: T6, Mannose-6-phosphate isomerase (Homo sapiens, UniProt P34949); assay: human PMI inhibitors, high substrate, primary screen, biochemical, fluorescence intensity, high mannose 6-phosphate (AID 1220)
T6 sequence (P34949 whole entry): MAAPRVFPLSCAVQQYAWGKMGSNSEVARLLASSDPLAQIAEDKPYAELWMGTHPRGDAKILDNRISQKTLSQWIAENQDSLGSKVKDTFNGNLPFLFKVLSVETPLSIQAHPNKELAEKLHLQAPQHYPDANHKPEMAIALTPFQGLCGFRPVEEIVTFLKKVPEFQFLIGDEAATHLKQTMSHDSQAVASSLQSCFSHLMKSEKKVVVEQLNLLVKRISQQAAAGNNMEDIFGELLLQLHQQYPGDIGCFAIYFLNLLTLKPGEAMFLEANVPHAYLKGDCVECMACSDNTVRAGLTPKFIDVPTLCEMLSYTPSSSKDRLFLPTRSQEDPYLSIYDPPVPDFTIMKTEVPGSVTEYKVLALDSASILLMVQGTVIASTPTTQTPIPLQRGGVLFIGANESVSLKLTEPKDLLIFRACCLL

[16] = target: T6, Mannose-6-phosphate isomerase; assay: inhibitors of human PMI, primary screen, biochemical, fluorescence intensity, coupled assay (AID 1209)
[17] = A cytotoxicity screen of small molecule inhibitors of the PhoP region in Salmonella typhi identified in the primary screen. [Related pubchem assays: 1850, 1864, 1985 ]; format: functional
[18] = THP-1 cell cytotoxicity, dose response, cytotoxicity control for non-replicating M. tuberculosis project (AID 489025); format: functional
[19] = Vero E6 cell cytotoxicity, dose response, cytotoxicity control for non-replicating M. tuberculosis project, secondary assay (AID 492998); format: functional, VeroE6; conditions: Vero C1008
cells [20] = assay: cells
cells [21] = format: functional
INS1 = assay: beta cell apoptosis inhibitors, cytokine rescue, dose response, luminescence, retest (AID 449756); format: functional, cell-based; conditions: Rattus norvegicus;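 further: cell death triggered by IL-1 beta plus TNF-alpha plus IFN-gamma mixture; protective hits raise ATP signal compared with cytokine alone wells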
Bcl-2-like protein 10 = target: T7, Bcl-2-like protein 10 (Homo sapiens, UniProt Q9HD36); assay: displacers of TR3 peptide from Bcl-B, primary screen, selectivity assay for Bfl-1 inhibitor project, biochemical, fluorescence polarization, FITC-TR3 peptide (AID 748);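 further: fluorescence polarization from a fluorescein-labelled TR3 peptide binding purified Bcl-B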
T7 sequence (Q9HD36 whole entry): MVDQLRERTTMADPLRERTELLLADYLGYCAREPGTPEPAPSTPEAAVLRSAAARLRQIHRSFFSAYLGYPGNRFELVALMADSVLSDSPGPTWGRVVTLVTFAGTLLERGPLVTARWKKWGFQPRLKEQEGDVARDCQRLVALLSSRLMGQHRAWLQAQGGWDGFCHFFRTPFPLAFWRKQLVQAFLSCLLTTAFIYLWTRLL

[22] = target: T8, Carboxy-terminal domain RNA polymerase II polypeptide A small phosphatase 1 (Homo sapiens, UniProt Q9GZU7); assay: inhibitors of CTDSP1, concentration-response testing, biochemical assay, absorbance-based, actives from ultra-high-throughput screening (AID 540297); format: functional
T8 sequence (Q9GZU7 whole entry): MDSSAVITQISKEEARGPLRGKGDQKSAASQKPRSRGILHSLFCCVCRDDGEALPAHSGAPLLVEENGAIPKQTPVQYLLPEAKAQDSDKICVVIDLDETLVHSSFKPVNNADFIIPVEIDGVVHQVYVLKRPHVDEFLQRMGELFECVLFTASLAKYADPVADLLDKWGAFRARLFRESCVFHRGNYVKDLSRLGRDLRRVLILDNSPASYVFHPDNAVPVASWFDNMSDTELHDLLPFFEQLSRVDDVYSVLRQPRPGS

[23] = cytotoxicity toward DRD oncogenic fibroblasts, dose response, cell-based, non-viral oncogenic, luminescence (AID 1934); format: functional; conditions: Homo sapiens
BJ [24] = assay: cytotoxicity toward Ras-transformed BJeLR fibroblasts, dose response, cell-based, alamar blue fluorescence, cherrypicked samples (AID 2631); format: functional; conditions: Homo sapiens;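 further: confirmatory dose-response assay in RAS-dependent BJ fibroblasts engineered with TERT, LT and ST, with cytotoxicity read by fluorescence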
BJ [25] = assay: cells; format: functional, cell-based; conditions: Homo sapiens
[26] = cytotoxicity in HEK-293T cells, dose response, cytotoxicity control for TCR NF-kB inhibitor project, luminescence, T-cell screen hits (AID 489026); format: functional, cell-based;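 further: cells exposed to compound about 14 hours before the viability readout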
BJ [27] = assay: cytotoxicity toward BJ-TERT-LT-ST fibroblasts, dose response, cell-based, RAS-independent, luminescence (AID 1935); format: functional; conditions: Homo sapiens;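 further: BJ fibroblasts immortalized with TERT plus LT and ST oncogenes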
BJ [28] = assay: cytotoxicity toward BJ-TERT fibroblasts, dose response, cell-based, RAS-independent, luminescence (AID 1933); format: functional; conditions: Homo sapiens

T4 sequence (Q92731 whole entry): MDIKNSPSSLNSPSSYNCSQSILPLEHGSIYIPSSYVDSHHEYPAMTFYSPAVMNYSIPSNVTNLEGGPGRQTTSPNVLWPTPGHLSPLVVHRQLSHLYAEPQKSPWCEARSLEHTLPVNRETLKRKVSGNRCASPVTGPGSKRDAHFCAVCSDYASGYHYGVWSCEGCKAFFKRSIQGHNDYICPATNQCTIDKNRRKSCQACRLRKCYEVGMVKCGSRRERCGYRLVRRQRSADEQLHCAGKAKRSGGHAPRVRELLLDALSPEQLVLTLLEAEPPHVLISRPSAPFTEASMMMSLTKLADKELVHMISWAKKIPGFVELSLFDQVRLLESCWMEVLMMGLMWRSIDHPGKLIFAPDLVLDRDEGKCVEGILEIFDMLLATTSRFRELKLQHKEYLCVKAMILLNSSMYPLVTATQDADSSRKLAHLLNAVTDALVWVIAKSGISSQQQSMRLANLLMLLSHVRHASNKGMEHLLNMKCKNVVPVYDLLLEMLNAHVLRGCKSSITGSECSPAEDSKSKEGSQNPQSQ
Protein-tyrosine kinase 2-beta, sequence (Q14289 whole entry): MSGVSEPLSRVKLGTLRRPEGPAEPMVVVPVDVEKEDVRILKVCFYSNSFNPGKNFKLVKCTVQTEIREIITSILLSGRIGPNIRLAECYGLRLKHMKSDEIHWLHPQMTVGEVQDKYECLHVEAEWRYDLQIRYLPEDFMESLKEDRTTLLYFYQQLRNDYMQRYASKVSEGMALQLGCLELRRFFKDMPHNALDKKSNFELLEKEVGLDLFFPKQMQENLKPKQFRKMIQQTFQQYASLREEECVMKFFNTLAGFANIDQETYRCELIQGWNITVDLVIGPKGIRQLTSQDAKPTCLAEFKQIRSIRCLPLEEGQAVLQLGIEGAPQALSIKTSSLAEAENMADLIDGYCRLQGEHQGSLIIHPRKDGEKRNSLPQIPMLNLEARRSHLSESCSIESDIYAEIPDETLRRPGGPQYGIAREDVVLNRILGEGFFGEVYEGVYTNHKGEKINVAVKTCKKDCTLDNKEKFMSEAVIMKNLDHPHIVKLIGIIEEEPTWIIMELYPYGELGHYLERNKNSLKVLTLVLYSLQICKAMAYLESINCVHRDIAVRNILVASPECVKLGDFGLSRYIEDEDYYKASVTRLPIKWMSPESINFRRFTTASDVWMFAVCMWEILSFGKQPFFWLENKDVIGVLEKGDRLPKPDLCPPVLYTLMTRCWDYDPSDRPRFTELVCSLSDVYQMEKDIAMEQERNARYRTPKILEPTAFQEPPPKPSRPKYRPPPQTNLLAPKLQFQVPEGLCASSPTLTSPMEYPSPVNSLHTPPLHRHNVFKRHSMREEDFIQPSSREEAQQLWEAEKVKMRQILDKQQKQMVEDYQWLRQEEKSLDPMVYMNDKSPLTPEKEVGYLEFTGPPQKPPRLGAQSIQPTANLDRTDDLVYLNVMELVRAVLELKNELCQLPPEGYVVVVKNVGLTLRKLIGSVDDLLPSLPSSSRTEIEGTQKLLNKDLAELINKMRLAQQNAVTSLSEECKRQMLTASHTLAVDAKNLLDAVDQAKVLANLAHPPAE
Sphingosine 1-phosphate receptor 1, sequence (P21453 whole entry): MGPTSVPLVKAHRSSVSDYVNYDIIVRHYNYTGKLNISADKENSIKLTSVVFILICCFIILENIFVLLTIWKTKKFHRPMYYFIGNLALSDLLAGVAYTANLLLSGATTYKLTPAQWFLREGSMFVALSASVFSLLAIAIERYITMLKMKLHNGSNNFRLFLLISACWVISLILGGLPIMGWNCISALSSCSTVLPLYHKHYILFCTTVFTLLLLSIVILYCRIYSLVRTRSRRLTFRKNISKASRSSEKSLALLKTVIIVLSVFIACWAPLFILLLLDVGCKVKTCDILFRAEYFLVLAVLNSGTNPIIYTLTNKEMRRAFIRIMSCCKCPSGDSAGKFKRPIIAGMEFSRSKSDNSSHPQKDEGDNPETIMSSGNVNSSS
T5 sequence (Q9UBE0 whole entry): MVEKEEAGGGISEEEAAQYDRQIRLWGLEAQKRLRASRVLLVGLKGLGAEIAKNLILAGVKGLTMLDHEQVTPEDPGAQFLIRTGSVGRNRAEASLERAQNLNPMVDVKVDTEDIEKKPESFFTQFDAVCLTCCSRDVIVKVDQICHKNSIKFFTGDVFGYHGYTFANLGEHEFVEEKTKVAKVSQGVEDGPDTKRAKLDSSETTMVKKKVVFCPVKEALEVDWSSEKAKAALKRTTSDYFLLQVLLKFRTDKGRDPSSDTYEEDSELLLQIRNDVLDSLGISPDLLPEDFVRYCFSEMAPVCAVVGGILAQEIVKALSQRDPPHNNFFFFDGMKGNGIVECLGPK
T5 sequence (Q9UBT2 whole entry): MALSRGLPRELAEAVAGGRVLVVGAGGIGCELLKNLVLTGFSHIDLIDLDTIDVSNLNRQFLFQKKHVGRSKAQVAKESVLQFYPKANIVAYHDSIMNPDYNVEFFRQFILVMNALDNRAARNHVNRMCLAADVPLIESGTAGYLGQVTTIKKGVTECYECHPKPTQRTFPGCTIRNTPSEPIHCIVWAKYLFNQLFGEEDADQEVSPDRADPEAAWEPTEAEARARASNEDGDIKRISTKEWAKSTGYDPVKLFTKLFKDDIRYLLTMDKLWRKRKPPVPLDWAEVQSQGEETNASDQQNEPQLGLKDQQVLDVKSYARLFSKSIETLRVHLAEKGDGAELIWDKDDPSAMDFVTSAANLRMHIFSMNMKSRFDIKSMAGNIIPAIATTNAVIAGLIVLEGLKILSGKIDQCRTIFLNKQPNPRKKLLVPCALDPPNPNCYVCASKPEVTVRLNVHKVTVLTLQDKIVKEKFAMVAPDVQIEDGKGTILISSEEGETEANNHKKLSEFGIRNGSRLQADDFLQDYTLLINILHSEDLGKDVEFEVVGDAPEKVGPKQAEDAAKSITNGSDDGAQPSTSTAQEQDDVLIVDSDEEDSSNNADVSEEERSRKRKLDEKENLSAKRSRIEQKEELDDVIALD

Structure (SMILES): CC(=O)Cn1ncc(Br)c(Br)c1=O
- EC50 [1]: 0.976 µM (active)
- IC50 [2]: 16.6 µM (not active)
- AC50 [3]: 15.8 µM (active)
- IC50 [4]: 4.22 µM (active)
- EC50 [5]: 12.4 µM (active)
- EC50 [6]: 1240 nM (active)

Structure (SMILES): O=C(Nc1cccc2cccc(NC(=O)c3ccco3)c12)c1ccco1
- IC50 (Estrogen receptor beta [7]): 15.5 µM (active)
- IC50 (Estrogen receptor beta [8]): > 50 µM (not active)

Structure (SMILES): CCCn1nnc(NC(=O)c2ccc(-c3cccc(Cl)c3)o2)n1
- IC50 [9]: > 83.4 µM (inactive)
- IC50 [10]: > 109 µM (inactive)
- EC50 [11]: 6.81 µM (active)

Structure (SMILES): CN1CCN(CC(=O)Nc2sc3c(c2C#N)CCC3)CC1
- IC50 (Estrogen receptor beta [8]): > 50 µM (not active)

Structure (SMILES): Cn1c2ccccc2c(=O)n2c(=O)c3ccccc3cc12
- IC50 [12]: > 69.5 µM (not active)
- IC50 (SUMO-activating enzyme [13]): 10.9 µM (active)
- IC50 (SUMO-activating enzyme [14]): 3.28 µM (active)

Structure (SMILES): N#Cc1c(NCCO)nc(NCc2ccccc2)c2c1CCN(Cc1ccccc1)C2
- IC50 [15]: > 50 µM (not active)
- IC50 [16]: > 50 µM (not active)

Structure (SMILES): CCOc1ccc(NC(=O)CN(C)C(=O)c2ccccc2CCc2ccccc2)cc1OCC
- EC50 [17]: > 50 µM (active)

Structure (SMILES): Cc1ccc(-c2onc3ccc(C=O)cc23)cc1
- IC50 [12]: 30.1 µM (not active)

Structure (SMILES): Cc1cc(C(=O)NCCC2=CCCCC2)no1
- IC50 [9]: > 83.3 µM (inactive)
- IC50 [10]: > 109 µM (inactive)

Structure (SMILES): CCN1CCN(c2ccc(S(=O)(=O)N3CCCCC3)cc2NC(=O)c2ccc([N+](=O)[O-])s2)CC1
- EC50 [1]: 6.56 µM (active)
- CC50 [18]: 10.5 µM (active)
- CC50 [19]: 8.95 µM (active)
- EC50 (cells [20]): 52 nM (active)
- IC50 (cells [21]): 7.51 µM (active)
- EC50 [6]: < 100 nM (active)
- AC50 (INS1): 3.46 µM (active)

Structure (SMILES): CCOC(=O)CNCCC(=O)c1ccc(Br)cc1
- IC50 [15]: > 50 µM (not active)
- IC50 [16]: > 50 µM (not active)
- IC50 (cells [21]): 20.4 µM (active)

Structure (SMILES): COc1ccccc1-c1nnc2sc(-c3cnccn3)nn12
- IC50 (Bcl-2-like protein 10): 28.5 µM (active)
- IC50 (Estrogen receptor beta [7]): 4.15 µM (active)
- IC50 [22]: 9.06 µM (active)

Structure (SMILES): O=C(CCC1CCCN(Cc2ccc(O)c(Cl)c2)C1)NCc1ccccc1F (centres undefined)
- EC50 [1]: > 60 µM (not active)
- EC50 (cells [20]): 77 nM (active)
- EC50 [6]: < 100 nM (active)

Structure (SMILES): O=C(N/N=C/c1ccc2ccccc2c1)c1ccc(COc2ccc3c(c2)CCC3)o1
- IC50 [22]: 3.24 µM (active)
- IC50 [12]: > 69.5 µM (not active)

Structure (SMILES): O=S1(=O)C=C(Sc2nc3ccccc3s2)c2ccccc21
- IC50 [2]: 12.6 µM (not active)
- EC50 [23]: 3.3 µM (active)
- EC50 (BJ [24]): 130 nM (active)
- EC50 (BJ [25]): 6.14 µM (inconclusive)
- IC50 [4]: 0.474 µM (active)
- IC50 [26]: 60.3 µM (inactive)
- EC50 [5]: 3.93 µM (inconclusive)
- EC50 (BJ [27]): 1.73 µM (inconclusive)
- EC50 (BJ [28]): 1.23 µM (active)
- AC50 (INS1): 3.36 µM (active)
